Experimental data from patent publication US20240140958A1, “FUSED QUADRACYCLIC COMPOUNDS, COMPOSITIONS AND USES THEREOF” (Tabomedex Biosciences, Inc., priority 2021, published 2024).

Assays:
[1] = molecular target: T1, MAPKAPK2 Recombinant Human Protein (Homo sapiens, UniProt P49137); experiment: MK2 kinase assay (Z'-LYTE kinase assay kit); settings: inhibition of MK2 biochemical activity; 90 min incubation at room temperature
T1 construct: purchased ThermoFisher pv3317
Summary of the method: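 Z'-LYTE FRET assay with recombinant human MAPKAPK2 and peptide substrate; compound and ATP added, kinase reaction 90 min at room temperature, then development 60 min before stop. Coumarin (445 nm) and fluorescein (520 nm) emissions read at 400 nm excitation.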

[2] = tested on: THP-1 cells; experiment: THP-1 cell assay: LPS-stimulated pSer78-Hsp27 ELISA; assay type: cell-based; settings: Homo sapiens, PMA-differentiated THP-1 cells, compound 60 min before 20 ng/mL LPS for 30 min
Source text: Materials and Reagents for Measuring Activity in THP-1 Cells: • 1) THP-1 cells (Cell bank of Shanghai) • 2) PMA (Sigma, Cat.No. P1585) • 3) LPS (Sigma, Cat.No. L4516) • 4) 96-well tissue-culture treated plate (Grenier, Cat.No. 655180) • 5) FBS (Thermofisher, Cat.No. 10100147) • 6) Complete EDTA-free protease inhibitor Cocktail (Roche, Cat.No. 4693132001) • 7) PhosSTOP (Roche, Cat.No. 4906845001) • 8) Phosphor-Hsp27 (Ser78) Sandwich Elisa kit (CST, Cat.No. 7295)
Cell Assay Procedure: • 1) Day 0: THP-1 cells are seeded at 50K/well in complete media (1640+10% FBS+50 μM β-ME)+20 ng/mL PMA in 96-well plate • 2) Day 1: PMA containing media is removed after 24 h incubation (37° C./5% CO2), and replaced with complete growth media. Cells are incubated an additional 48 h to recover. • 3) Day 3: Cells are incubated with or without compounds at indicated concentrations for 60 min, prior to addition of 20 ng/mL LPS. Cells are stimulated for 30 min with LPS, washed 1× with ice cold PBS, lysed on ice in Lysis buffer provided in ELISA kit with Roche protease & phosphatase inhibitors. Extracts are clarified by refrigerated centrifugation & stored at −80° C. until pHsp27/total Hsp27 ELISAs • 4) Day 3 or Day 4: Cell Signaling Technology ELISA is run for pSer78-Hsp27 on lysates diluted to approximately 2.5 μg/well. • 5) The absorbance at 450 nm was read in a SpectraMax plus plate reader (Molecular Devices). Data was processed using GraphPad prism 8.0.

T1 sequence (P49137 whole entry): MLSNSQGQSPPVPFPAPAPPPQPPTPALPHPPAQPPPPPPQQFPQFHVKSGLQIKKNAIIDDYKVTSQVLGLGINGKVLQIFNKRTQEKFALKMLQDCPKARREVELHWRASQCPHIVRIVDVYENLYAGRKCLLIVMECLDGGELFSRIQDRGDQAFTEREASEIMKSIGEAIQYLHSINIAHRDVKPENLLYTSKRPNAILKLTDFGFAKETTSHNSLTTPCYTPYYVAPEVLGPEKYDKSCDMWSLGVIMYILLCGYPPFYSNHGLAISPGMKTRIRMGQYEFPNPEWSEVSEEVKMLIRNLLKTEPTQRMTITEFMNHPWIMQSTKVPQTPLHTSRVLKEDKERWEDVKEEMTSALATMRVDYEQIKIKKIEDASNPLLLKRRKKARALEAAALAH

Row | SMILES | IC50 [1] | IC50 [2]
1 | N#Cc1ccc(-c2cc3n(c2)Cc2cc(N4CC5(CNC5)CC4=O)ccc2-n2ccnc2-3)cc1 [Example 22, 4-(7-(7-Oxo-2,6-diazaspiro[3.4]octan-6-yl)-9H-benzo[e]imidazo[2,1-c]pyrrolo [1,2-a][1,4]diazepin-12-yl)benzonitrile] | < 50 nM | 1000 to 1500 nM
2 | CC1(C)CCN1C[C@@H]1CN(c2ccc3c(c2)Cn2cc(-c4ccc(C#N)cc4)cc2-c2nccn2-3)C(=O)O1 [Example 6, (R)-4-(7-(5-((2,2-Dimethylazetidin-1-yl)methyl)-2-oxooxazolidin-3-yl)-9H-benzo[e]imidazo[2,1-c]pyrrolo[1,2-a][1,4]diazepin-12-yl)benzonitrile] | < 50 nM | < 50 nM
3 | CNC[C@H]1CC(=O)N(c2ccc3c(c2)Cn2cc(-c4ccc(C#N)cc4)cc2-c2nccn2-3)C1 [Example 9] | < 50 nM | 50 to 100 nM
4 | CN(C)C[C@@H]1CN(c2ccc3c(c2)Cn2cc(-c4ccc(C#N)cc4)cc2-c2nccn2-3)C(=O)O1 [Example 1, (R)-4-(7-(5-((Dimethylamino)methyl)-2-oxooxazolidin-3-yl)-9H-benzo [e]imidazo[2,1-c]pyrrolo[1,2-a][1,4]diazepin-12-yl)benzonitrile] | < 50 nM | < 50 nM
5 | CC(C)N1CC(NC(=O)c2ccc3c(c2)Cn2cc(-c4ccc(C#N)cc4)cc2-c2nccn2-3)C1 [Example 128] | < 50 nM | 500 to 1000 nM
6 | CC(C)(C)NC[C@@H]1CN(c2ccc3c(c2)Cn2cc(-c4ccc(C#N)cc4)cc2-c2nccn2-3)C(=O)O1 [Example 4] | < 50 nM | < 50 nM
7 | CC(C)(N)[C@@H]1CC(=O)N(c2ccc3c(c2)Cn2cc(-c4ccc(C#N)cc4)cc2-c2nccn2-3)C1 [Example 53] | < 50 nM | 300 to 400 nM
8 | CN(C)CCN1CCN(c2ccc3c(c2)Cn2cc(-c4ccc(C#N)cc4)cc2-c2nccn2-3)C1=O [Example 57, 4-(7-(3-(2-(Dimethylamino)ethyl)-2-oxoimidazolidin-1-yl)-9H-benzo[e]imidazo[2,1-c]pyrrolo[1,2-a][1,4]diazepin-12-yl)benzonitrile] | < 50 nM | < 50 nM
9 | CN1CC(CN2C(=O)CN(c3ccc4c(c3)Cn3cc(-c5ccc(C#N)cc5)cc3-c3nccn3-4)C2=O)C1 [Example 67] | < 50 nM | > 1000 nM
10 | CN1CC(N2CCN(c3ccc4c(c3)Cn3cc(-c5ccc(C#N)cc5)cc3-c3nccn3-4)C2=O)C1 [Example 58, 4-(7-(3-(1-Methylazetidin-3-yl)-2-oxoimidazolidin-1-yl)-9H-benzo[e]imidazo[2,1-c]pyrrolo[1,2-a][1,4]diazepin-12-yl)benzonitrile] | < 50 nM | < 50 nM
11 | CN(C)CCn1cnn(-c2ccc3c(c2)Cn2cc(-c4ccc(C#N)cc4)cc2-c2nccn2-3)c1=O [Example 79, 4-(7-(4-(2-(Dimethylamino)ethyl)-5-oxo-4,5-dihydro-1H-1,2,4-triazol-1-yl)-9H-benzo[e]imidazo[2,1-c]pyrrolo[1,2-a][1,4]diazepin-12-yl)benzonitrile] | 50 to 100 nM | 100 to 200 nM
12 | N#Cc1ccc(-c2cc3n(c2)Cc2cc(N4C[C@@H](CN5CC(O)C5)CC4=O)ccc2-n2ccnc2-3)cc1 [Example 29] | < 50 nM | 50 to 100 nM
13 | CN(C)[C@H]1C[C@@H](N2CCN(c3ccc4c(c3)Cn3cc(-c5ccc(C#N)cc5)cc3-c3nccn3-4)C2=O)C1 [Example 59] | < 50 nM | 50 to 100 nM
14 | CN(C)CC1(C)CC(=O)N(c2ccc3c(c2)Cn2cc(-c4ccc(C#N)cc4)cc2-c2nccn2-3)C1 (stereo not shown) [Example 33, 4-(7-(4-((Dimethylamino)methyl)-4-methyl-2-oxopyrrolidin-1-yl)-9H-benzo [e]imidazo[2,1-c]pyrrolo[1,2-a][1,4]diazepin-12-yl)benzonitrile] | < 50 nM | 400 to 500 nM
15 | C[C@H]1[C@@H](CN(C)C)OC(=O)N1c1ccc2c(c1)Cn1cc(-c3ccc(C#N)cc3)cc1-c1nccn1-2 [Example 61, 4-(7-((4S,5R)-5-((Dimethylamino)methyl)-4-methyl-2-oxooxazolidin-3-yl)-9H-benzo[e]imidazo[2,1-c]pyrrolo[1,2-a][1,4]diazepin-12-yl)benzonitrile] | 50 to 100 nM | 300 to 400 nM
16 | N#Cc1ccc(-c2cc3n(c2)Cc2cc(N4C[C@H]5CNC[C@H]5C4=O)ccc2-n2ccnc2-3)cc1 (relative stereo) [Example 30, cis-4-(7-(1-oxohexahydropyrrolo[3,4-c]pyrrol-2(1H)-yl)-9H-benzo[e]imidazo [2,1-c]pyrrolo[1,2-a][1,4]diazepin-12-yl)benzonitrile] | 50 to 100 nM | 200 to 300 nM
17 | CC(C)NC[C@H]1CC(=O)N(c2ccc3c(c2)Cn2cc(-c4ccc(C#N)cc4)cc2-c2nccn2-3)C1 [Example 12] | < 50 nM | 100 to 200 nM
18 | CN(C)C[C@H]1CC(=O)N(c2ccc3c(c2)Cn2cc(-c4ccc(C#N)cc4)cc2-c2ncnn2-3)C1 [Example 87, (R)-4-(7-(4-((Dimethylamino)methyl)-2-oxopyrrolidin-1-yl)-9H-benzo[e]pyrrolo [1,2-a][1,2,4]triazolo[5,1-c][1,4]diazepin-12-yl)benzonitrile] | < 50 nM | 100 to 200 nM
19 | CNC[C@@H]1CN(c2ccc3c(c2)Cn2cc(-c4ccc(C#N)cc4)cc2-c2nccn2-3)C(=O)O1 [Example 3] | < 50 nM | < 50 nM
20 | CC(C)(N)[C@@H]1CN(c2ccc3c(c2)Cn2cc(-c4ccc(C#N)cc4)cc2-c2nccn2-3)C(=O)O1 (single isomer, unassigned) [Example 21] | < 50 nM | < 50 nM
21 | CN(C)CC1CC12CCN(c1ccc3c(c1)Cn1cc(-c4ccc(C#N)cc4)cc1-c1nccn1-3)C2=O (stereo not shown) [Example 47, 4-(7-(1-((Dimethylamino)methyl)-4-oxo-5-azaspiro[2.4]heptan-5-yl)-9H-benzo[e]imidazo[2,1-c]pyrrolo[1,2-a][1,4]diazepin-12-yl)benzonitrile] | < 50 nM | 100 to 200 nM
22 | CN(C)C[C@@H]1CC(=O)N(c2ccc3c(c2)Cn2cc(-c4ccc(C#N)cc4)cc2-c2nccn2-3)C1 [Example 17, (S)-4-(7-(4-((Dimethylamino)methyl)-2-oxopyrrolidin-1-yl)-9H-benzo[e]imidazo[2,1-c]pyrrolo[1,2-a][1,4]diazepin-12-yl)benzonitrile] | 50 to 100 nM | 200 to 300 nM
23 | N#Cc1ccc(-c2cc3n(c2)Cc2cc(N4C[C@@H](CNC5CC5)CC4=O)ccc2-n2ccnc2-3)cc1 [Example 15] | < 50 nM | < 50 nM
